Data published in patent US7074758B2, “Two gonadotropin releasing hormones and a method to isolate the same” (Council of Scientific and Industrial Research, priority 2002, dated 2006).
Entries after “also recorded” stand apart in the source; their conditions may differ. Where two headings read alike, the source gives them in different places.

Assays:
murrel pituitary cells = experiment: GtH release from murrel pituitary cell incubations, GtH measured by RIA; assay type: cell-based, Indian Murrel; conditions: for GtH released: Table 4, 2 μg GnRH fractions, mean ± SEM of five experiments, species of cells not given; for increase gonadotropin release: fold increase of gonadotropin release
Description: Meanwhile Jamaluddin et al, (Gen comp Endocrinology May 1989; 74(2): 190–8) of applicants laboratory developed a very dependable GnRH bioassay. Basic principle of this bioassay is to get the release of GTH from murrel primary pituitary cell culture and determine the amount of GTH released by GTH-RIA. […]
These three acetone fractions were extracted with petroleum ether (40–60° C.) to remove acetone, lipids and other hydrophobic substances. The final precipitates were centrifuged at 8,000 g for 15 min at 4° C. and the residues were stored at −80° C. until further use.

[1] = system: Cyprinus carpio pituitary cells; experiment: gonadotropin release from carp pituitaries in response to murrel GnRH I and II; assay type: cell-based; conditions: 2 μg GnRH fractions
[2] = system: Cirrhinus mrigala pituitary cells; experiment: as above; assay type: cell-based; conditions: 2 μg GnRH fractions
From the text: (§1) Meanwhile Jamaluddin et al, (Gen comp Endocrinology May 1989; 74(2): 190–8) of applicants laboratory developed a very dependable GnRH bioassay. Basic principle of this bioassay is to get the release of GTH from murrel primary pituitary cell culture and determine the amount of GTH released by GTH-RIA. […] Moreover, these two GnRHs act almost equally in different species of carp indicating no species barrier (As shown below in Table 3).

[3] = system: Catla catla pituitary cells; experiment: as above; assay type: cell-based; conditions: 2 μg GnRH fractions
From the text: as §1

Substance	GnRH activity on the basis of GTH release from in vitro pituitary cell culture (murrel pituitary cells)	GtH released (murrel pituitary cells)	increase gonadotropin release (murrel pituitary cells)	GnRH activity on the basis of GTH release from in vitro pituitary cell culture (murrel pituitary cells; listed as SRP H)	GtH II released [1]	GtH II released [2]	GtH II released [3]	GnRH activity on the basis of GTH release from in vitro pituitary cell culture (murrel pituitary cells; listed as QRP H)
QHWSWGILPG (channa punctatus) [muGnRH II]	more active gonadotropin releasing hormone than muGnRH I; also recorded: highly active; also recorded: slightly more active	79.2 ± 3.12 ng/6 × 10^4 cells	about 35 times	GnRH was found to be located	81.7 ± 3.12 ng/6 × 10^4 cells	80.1 ± 2.61 ng/6 × 10^4 cells	82.6 ± 3.02 ng/6 × 10^4 cells	–
mammalian GnRH: mammalian gonadotropin releasing hormone decapeptide, comparator (QHWSYGLRPG; Gonadoliberin-1; UniProt P01148 24-33, looked up) [reference compound]	–	49.9 ± 2.02 ng/6 × 10^4 cells	–	–	–	–	–	–
des-Gly^10,[D-Ala^6]-LHRH [GnRH superactive analogue, reference compound]	–	68.0 ± 2.32 ng/6 × 10^4 cells	–	–	–	–	–	–
QHWSAWRLPG (channa punctatus) [muGnRH I]	highly active	73.3 ± 2.2 ng/6 × 10^4 cells	about 30 times	–	73.8 ± 2.51 ng/6 × 10^4 cells	72.0 ± 2.13 ng/6 × 10^4 cells	74.5 ± 2.32 ng/6 × 10^4 cells	GnRH was found to be located
